Here are results for 1 molecule from paper PMC5218480 (PLoS ONE, 2017).

In this experiment the test system is MV-4-11 cells. Description: Gene expression microarray analysis (Affymetrix PrimeView) and GSEA. Format: cell-based, human. More on the design: RFU PODN (11730768_x_at) / Fold change /veh PODN (11730768_x_at) / RFU LINC00158 (11744669_a_at) / Fold change /veh LINC00158 (11744669_a_at) / RFU DUSP10 (11751237_a_at) / Fold change /veh DUSP10 (11751237_a_at) / RFU ID3 (11757404_x_at) / Fold change /veh ID3 (11757404_x_at) / RFU PLEKHG5 (11737974_s_at) / Fold change /veh PLEKHG5 (11737974_s_at) / RFU LRRC4B (11730491_at) / Fold change /veh LRRC4B (11730491_at) / RFU GIMAP4 (11747438_a_at) / Fold change /veh GIMAP4 (11747438_a_at) / RFU KRT8 (11758183_x_at) / Fold change /veh KRT8 (11758183_x_at) / RFU CNN1 (11734310_a_at) / Fold change /veh CNN1 (11734310_a_at) / RFU VPS37D (11726825_at) / Fold change /veh VPS37D (11726825_at) / RFU C10orf10 (11716522_x_at) / Fold change /veh C10orf10 (11716522_x_at) / RFU KIR2DL2 /// KIR2DL4 /// KIR2DL5A /// KIR2DL5B /// KIR2DS1 /// KIR2DS2 /// KIR2DS3 /// KIR2DS4 /// KIR3DL3 /// KIR3DL3 /// KIR3DS1 (11738374_at) / Fold change /veh KIR2DL2 /// KIR2DL4 /// KIR2DL5A /// KIR2DL5B /// KIR2DS1 /// KIR2DS2 /// KIR2DS3 /// KIR2DS4 /// KIR3DL3 /// KIR3DL3 /// KIR3DS1 (11738374_at) / RFU C1QL1 (11718748_at) / Fold change /veh C1QL1 (11718748_at) / RFU TMPRSS4 (11747572_a_at) / Fold change /veh TMPRSS4 (11747572_a_at) / RFU HAMP (11756126_x_at) / Fold change /veh HAMP (11756126_x_at) / RFU RNFT2 (11725882_a_at) / Fold change /veh RNFT2 (11725882_a_at) / RFU NR4A2 (11747474_a_at) / Fold change /veh NR4A2 (11747474_a_at) / RFU ABCC12 (11746883_a_at) / Fold change /veh ABCC12 (11746883_a_at) / RFU TMEM136 (11760407_x_at) / Fold change /veh TMEM136 (11760407_x_at) / RFU CLDN22 /// WWC2 (11732394_at) / Fold change /veh CLDN22 /// WWC2 (11732394_at) / RFU HLA-DPB1 (11760878_x_at) / Fold change /veh HLA-DPB1 (11760878_x_at) / RFU SPINT1 (11716480_a_at) / Fold change /veh SPINT1 (11716480_a_at) / RFU GAP43 (11754022_s_at) / Fold change /veh GAP43 (11754022_s_at) / RFU A4GNT (11735810_at) / Fold change /veh A4GNT (11735810_at) / RFU PRB3 (11715151_x_at) / Fold change /veh PRB3 (11715151_x_at) / RFU TUBB4B (11761932_at) / Fold change /veh TUBB4B (11761932_at) / RFU CAPN14 (11732068_a_at) / Fold change /veh CAPN14 (11732068_a_at) / RFU TMCC2 (11721928_a_at) / Fold change /veh TMCC2 (11721928_a_at) / RFU IRGQ (11745062_a_at) / Fold change /veh IRGQ (11745062_a_at) / RFU FAM174B (11720279_a_at) / Fold change /veh FAM174B (11720279_a_at) / RFU TMPRSS4 (11748680_a_at) / Fold change /veh TMPRSS4 (11748680_a_at) / RFU FAM212B (11763350_a_at) / Fold change /veh FAM212B (11763350_a_at) / RFU PLEKHG5 (11743358_a_at) / Fold change /veh PLEKHG5 (11743358_a_at) / RFU ZSCAN30 (11745921_a_at) / Fold change /veh ZSCAN30 (11745921_a_at) / RFU CMKLR1 (11741424_a_at) / Fold change /veh CMKLR1 (11741424_a_at) / RFU LOC101060620 /// MAPK8IP1 (11723275_at) / Fold change /veh LOC101060620 /// MAPK8IP1 (11723275_at) / RFU SPTSSB (11747773_x_at) / Fold change /veh SPTSSB (11747773_x_at) / RFU PRSS12 (11739890_at) / Fold change /veh PRSS12 (11739890_at) / RFU BIN1 (11741810_x_at) / Fold change /veh BIN1 (11741810_x_at) / RFU WNT11 (11732464_a_at) / Fold change /veh WNT11 (11732464_a_at) / RFU C10orf10 (11716521_a_at) / Fold change /veh C10orf10 (11716521_a_at) / RFU C5orf56 (11738089_at) / Fold change /veh C5orf56 (11738089_at) / RFU CYB561 (11721691_x_at) / Fold change /veh CYB561 (11721691_x_at) / RFU ANKRD19P (11752326_a_at) / Fold change /veh ANKRD19P (11752326_a_at) / RFU OR2T12 /// OR2T33 /// OR2T8 (11738714_s_at) / Fold change /veh OR2T12 /// OR2T33 /// OR2T8 (11738714_s_at) / RFU VCAN (11748164_a_at) / Fold change /veh VCAN (11748164_a_at) / RFU JSRP1 (11732532_at) / Fold change /veh JSRP1 (11732532_at) / RFU KRTAP10-11 (11738290_x_at) / Fold change /veh KRTAP10-11 (11738290_x_at) / RFU MYO3A (11730013_a_at) / Fold change /veh MYO3A (11730013_a_at) / RFU EBF3 (11725865_a_at) / Fold change /veh EBF3 (11725865_a_at) / RFU CAMK2N1 (11719241_x_at) / Fold change /veh CAMK2N1 (11719241_x_at) / RFU C5orf56 (11738088_a_at) / Fold change /veh C5orf56 (11738088_a_at) / RFU OLFML3 (11715873_a_at) / Fold change /veh OLFML3 (11715873_a_at) / RFU LOC100653217 /// NTM (11731650_a_at) / Fold change /veh LOC100653217 /// NTM (11731650_a_at) / RFU MAPK11 (11762145_a_at) / Fold change /veh MAPK11 (11762145_a_at) / RFU FIZ1 (11724087_x_at) / Fold change /veh FIZ1 (11724087_x_at) / RFU OASL (11726364_x_at) / Fold change /veh OASL (11726364_x_at) / RFU SOX15 (11748057_x_at) / Fold change /veh SOX15 (11748057_x_at) / RFU CD79A (11719716_a_at) / Fold change /veh CD79A (11719716_a_at) / RFU HIST1H1D (11736915_at) / Fold change /veh HIST1H1D (11736915_at) / RFU CASKIN2 (11723855_a_at) / Fold change /veh CASKIN2 (11723855_a_at) / RFU LOC730098 (11760151_x_at) / Fold change /veh LOC730098 (11760151_x_at) / RFU OR4N2 (11742367_at) / Fold change /veh OR4N2 (11742367_at) / RFU PRRT2 (11749266_a_at) / Fold change /veh PRRT2 (11749266_a_at) / RFU SNX32 (11753110_a_at) / Fold change /veh SNX32 (11753110_a_at) / RFU CDHR5 (11726645_a_at) / Fold change /veh CDHR5 (11726645_a_at) / RFU RCAN1 (11760418_a_at) / Fold change /veh RCAN1 (11760418_a_at) / RFU FAM167A (11723789_a_at) / Fold change /veh FAM167A (11723789_a_at) / RFU FAM26E (11764081_at) / Fold change /veh FAM26E (11764081_at) / RFU ISYNA1 (11749810_s_at) / Fold change /veh ISYNA1 (11749810_s_at) / RFU ACY1 (11761880_at) / Fold change /veh ACY1 (11761880_at) / RFU 11764098_at / Fold change /veh 11764098_at / RFU SAMD14 (11745864_x_at) / Fold change /veh SAMD14 (11745864_x_at) / RFU NPB (11741838_a_at) / Fold change /veh NPB (11741838_a_at) / RFU TMPRSS6 (11731388_a_at) / Fold change /veh TMPRSS6 (11731388_a_at) / RFU KRTAP10-2 (11738614_at) / Fold change /veh KRTAP10-2 (11738614_at) / RFU ARHGAP8 /// PRR5-ARHGAP8 (11727945_x_at) / Fold change /veh ARHGAP8 /// PRR5-ARHGAP8 (11727945_x_at) / RFU KRTAP5-7 /// NADSYN1 (11734609_at) / Fold change /veh KRTAP5-7 /// NADSYN1 (11734609_at) / RFU RASL12 (11751679_a_at) / Fold change /veh RASL12 (11751679_a_at) / RFU CDKN2B (11736163_a_at) / Fold change /veh CDKN2B (11736163_a_at) / RFU PRF1 (11729649_at) / Fold change /veh PRF1 (11729649_at) / RFU, ZNF638 /// ZNF638-IT1 / Fold change vs veh, ZNF638 /// ZNF638-IT1 / RFU, PANK3 / Fold change vs veh, PANK3 / RFU, SH3YL1 / Fold change vs veh, SH3YL1 / RFU, ZEB2 / Fold change vs veh, ZEB2 / RFU, NRIP1 / Fold change vs veh, NRIP1 / RFU, PTTG1IP / Fold change vs veh, PTTG1IP / RFU, CAPN2 / Fold change vs veh, CAPN2 / RFU, MED14 / Fold change vs veh, MED14 / RFU, SNORA58 / Fold change vs veh, SNORA58 / RFU, C1orf63 / Fold change vs veh, C1orf63 / RFU, LRRFIP1 / Fold change vs veh, LRRFIP1 / RFU, NDUFAF7 / Fold change vs veh, NDUFAF7 / RFU, SLC12A2 / Fold change vs veh, SLC12A2 / RFU, IBTK / Fold change vs veh, IBTK / RFU, ESF1 / Fold change vs veh, ESF1 / Fold change vs veh, TMEM50B / RFU, TAOK1 / Fold change vs veh, TAOK1 / RFU, ACBD3 / Fold change vs veh, ACBD3 / RFU, TMA16 / Fold change vs veh, TMA16 / RFU, RWDD3 / Fold change vs veh, RWDD3 / RFU, BCAT1 / Fold change vs veh, BCAT1 / RFU, EDEM3 / Fold change vs veh, EDEM3 / RFU, TMEM33 / Fold change vs veh, TMEM33 / RFU, WDR75 / Fold change vs veh, WDR75 / RFU, AHCTF1 / Fold change vs veh, AHCTF1 / RFU, TFRC / Fold change vs veh, TFRC / RFU, ZDHHC17 / Fold change vs veh, ZDHHC17 / RFU, NOM1 / Fold change vs veh, NOM1 / RFU, ARL8B / Fold change vs veh, ARL8B / RFU, ZBTB11 / Fold change vs veh, ZBTB11 / RFU, TAMM41 / Fold change vs veh, TAMM41 / RFU, KIAA1704 /// LOC100996395 / Fold change vs veh, KIAA1704 /// LOC100996395 / RFU, ING1 / Fold change vs veh, ING1 / RFU, TRMT61B / Fold change vs veh, TRMT61B / RFU, FUBP3 / Fold change vs veh, FUBP3 / RFU, TP53 / Fold change vs veh, TP53 / RFU, TNKS2 / Fold change vs veh, TNKS2 / RFU, ZFP14 / Fold change vs veh, ZFP14 / RFU, ACTR2 / Fold change vs veh, ACTR2 / RFU, PPP3R1 / Fold change vs veh, PPP3R1 / RFU, PIK3R1 / Fold change vs veh, PIK3R1 / RFU, HNRNPA1 / Fold change vs veh, HNRNPA1 / RFU, RNF170 / Fold change vs veh, RNF170 / RFU, ZNF28 / Fold change vs veh, ZNF28 / RFU, RNGTT / Fold change vs veh, RNGTT / RFU, OGT / Fold change vs veh, OGT / RFU, BRD1 / Fold change vs veh, BRD1 / RFU, MARS / Fold change vs veh, MARS / RFU, ZNF655 / Fold change vs veh, ZNF655 / RFU, FAHD1 / Fold change vs veh, FAHD1 / RFU, BDP1 / Fold change vs veh, BDP1 / RFU, LRRCC1 / Fold change vs veh, LRRCC1 / RFU, ARID1A / Fold change vs veh, ARID1A / RFU, ZNF146 / Fold change vs veh, ZNF146 / RFU, ZNF330 / Fold change vs veh, ZNF330 / RFU, GPN3 / Fold change vs veh, GPN3 / RFU, C9orf123 / Fold change vs veh, C9orf123 / RFU, N4BP2L2 / Fold change vs veh, N4BP2L2 / RFU, ARFIP1 / Fold change vs veh, ARFIP1 / RFU, FAM179B / Fold change vs veh, FAM179B / RFU, BCL10 / Fold change vs veh, BCL10 / RFU, UHRF1BP1L / Fold change vs veh, UHRF1BP1L / RFU, BET1 / Fold change vs veh, BET1 / RFU, CNOT2 / Fold change vs veh, CNOT2 / RFU, ZNF268 / Fold change vs veh, ZNF268 / Fold change vs veh, ZNF507 / RFU, DGCR2 / Fold change vs veh, DGCR2 / RFU, WDSUB1 / Fold change vs veh, WDSUB1 / Fold change vs veh, HSP90B1 /// MIR3652 / RFU, ADSS / Fold change vs veh, ADSS / RFU, GK / Fold change vs veh, GK / RFU, ZNF148 / Fold change vs veh, ZNF148 / RFU, TAF9 / Fold change vs veh, TAF9 / RFU, SLC1A5 / Fold change vs veh, SLC1A5 / RFU, SLMO2 / Fold change vs veh, SLMO2 / RFU, ABCC4 / Fold change vs veh, ABCC4 / RFU, LOC101060439 /// RAP1B / Fold change vs veh, LOC101060439 /// RAP1B / RFU, RFX7 / Fold change vs veh, RFX7 / RFU, GTPBP10 / Fold change vs veh, GTPBP10 / RFU, CNEP1R1 / Fold change vs veh, CNEP1R1 / RFU, BIVM-ERCC5 /// ERCC5 / Fold change vs veh, BIVM-ERCC5 /// ERCC5 / RFU, ILF3 / Fold change vs veh, ILF3 / RFU 11762660_at / Fold change /veh 11762660_at / RFU VCAN (11757783_s_at) / Fold change /veh VCAN (11757783_s_at) / RFU DDX43 (11728927_at) / Fold change /veh DDX43 (11728927_at) / RFU KRT8 (11758188_x_at) / Fold change /veh KRT8 (11758188_x_at) / RFU NKD1 (11759106_at) / Fold change /veh NKD1 (11759106_at) / RFU SRD5A1 (11742802_a_at) / Fold change /veh SRD5A1 (11742802_a_at) / RFU TPSAB1 /// TPSB2 (11721975_s_at) / Fold change /veh TPSAB1 /// TPSB2 (11721975_s_at) / RFU GSTM3 (11746129_a_at) / Fold change /veh GSTM3 (11746129_a_at) / RFU IL23R (11737362_x_at) / Fold change /veh IL23R (11737362_x_at) / RFU TMEM51 (11727254_a_at) / Fold change /veh TMEM51 (11727254_a_at) / RFU PIWIL2 (11732686_x_at) / Fold change /veh PIWIL2 (11732686_x_at) / RFU ORM1 (11744905_x_at) / Fold change /veh ORM1 (11744905_x_at) / RFU CCDC152 (11743942_at) / Fold change /veh CCDC152 (11743942_at) / RFU ECM1 (11717891_a_at) / Fold change /veh ECM1 (11717891_a_at) / RFU IL23R (11748794_a_at) / Fold change /veh IL23R (11748794_a_at) / RFU TNFAIP8L3 (11732012_x_at) / Fold change /veh TNFAIP8L3 (11732012_x_at) / RFU MBOAT4 (11741988_at) / Fold change /veh MBOAT4 (11741988_at) / RFU 11764193_at / Fold change /veh 11764193_at / RFU TMEM53 (11763286_at) / Fold change /veh TMEM53 (11763286_at) / RFU MAGEB2 (11727129_at) / Fold change /veh MAGEB2 (11727129_at) / RFU TMEM200A (11744735_a_at) / Fold change /veh TMEM200A (11744735_a_at) / RFU CCDC152 (11751479_a_at) / Fold change /veh CCDC152 (11751479_a_at) / RFU FAM211A (11726209_a_at) / Fold change /veh FAM211A (11726209_a_at) / RFU RGS16 (11746705_a_at) / Fold change /veh RGS16 (11746705_a_at) / RFU VCAN (11755009_s_at) / Fold change /veh VCAN (11755009_s_at) / RFU RHOB (11743442_s_at) / Fold change /veh RHOB (11743442_s_at) / RFU RGS16 (11720943_a_at) / Fold change /veh RGS16 (11720943_a_at) / RFU RGS16 (11720944_at) / Fold change /veh RGS16 (11720944_at) / RFU, VPS4B / Fold change vs veh, VPS4B / RFU, CREB1 / Fold change vs veh, CREB1 / RFU, DNAJC13 / Fold change vs veh, DNAJC13 / RFU, GNAQ / Fold change vs veh, GNAQ / RFU, CDK5R1 / Fold change vs veh, CDK5R1 / RFU, ZRANB3 / Fold change vs veh, ZRANB3 / RFU, CUL4A / Fold change vs veh, CUL4A / RFU, CCNY / Fold change vs veh, CCNY / RFU, UFL1 / Fold change vs veh, UFL1 / RFU, COG3 / Fold change vs veh, COG3 / RFU, DIAPH2 / Fold change vs veh, DIAPH2 / RFU, SKA2 / Fold change vs veh, SKA2 / RFU, AFF3 / Fold change vs veh, AFF3 / RFU, LMF1 / Fold change vs veh, LMF1 / RFU, IPO11 / Fold change vs veh, IPO11 / RFU, DFFB / Fold change vs veh, DFFB / RFU, FOXP1 / Fold change vs veh, FOXP1 / RFU, CARD8 / Fold change vs veh, CARD8 / RFU, STRN3 / Fold change vs veh, STRN3 / RFU, ADK / Fold change vs veh, ADK / RFU, RASSF2 / Fold change vs veh, RASSF2 / RFU, WIPF1 / Fold change vs veh, WIPF1 / RFU, LARP1B / Fold change vs veh, LARP1B / RFU, RASA1 / Fold change vs veh, RASA1 / RFU, RB1 / Fold change vs veh, RB1 / RFU, PPFIA1 / Fold change vs veh, PPFIA1 / RFU, MAT2A / Fold change vs veh, MAT2A / RFU, CCT5 / Fold change vs veh, CCT5 / RFU, WDR92 / Fold change vs veh, WDR92 / RFU, CUX1 / Fold change vs veh, CUX1 / RFU, TTC7A / Fold change vs veh, TTC7A / RFU, TMEM135 / Fold change vs veh, TMEM135 / RFU, DEPTOR / Fold change vs veh, DEPTOR / RFU, CPM / Fold change vs veh, CPM / RFU, DNAJB6 / Fold change vs veh, DNAJB6 / RFU, CACNA2D3 / Fold change vs veh, CACNA2D3 / RFU, DTX4 / Fold change vs veh, DTX4 / RFU, TFCP2 / Fold change vs veh, TFCP2 / RFU, GMCL1 /// GMCL1P1 / Fold change vs veh, GMCL1 /// GMCL1P1 / RFU, AEBP2 / Fold change vs veh, AEBP2 / RFU, SNHG1 /// SNORD22 /// SNORD25 /// SNORD26 /// SNORD27 /// SNORD28 /// SNORD29 /// SNORD31 / Fold change vs veh, SNHG1 /// SNORD22 /// SNORD25 /// SNORD26 /// SNORD27 /// SNORD28 /// SNORD29 /// SNORD31 / Fold change (Aza/veh), C12orf56 (ProbeSet 11735607_a_at) / Fold change (ACY-1035/veh), C12orf56 (ProbeSet 11735607_a_at) / Fold change (Aza/veh), FGFR1OP (ProbeSet 11751329_s_at) / Fold change (ACY-1035/veh), FGFR1OP (ProbeSet 11751329_s_at) / Fold change (Aza/veh), VPS36 (ProbeSet 11739960_a_at) / Fold change (ACY-1035/veh), VPS36 (ProbeSet 11739960_a_at) / RFU SYPL1 (11715823_x_at) / Fold change /veh SYPL1 (11715823_x_at) / RFU IGFBP7 (11715501_s_at) / Fold change /veh IGFBP7 (11715501_s_at) / RFU REEP3 (11722064_at) / Fold change /veh REEP3 (11722064_at) / RFU IGLL1 (11728026_x_at) / Fold change /veh IGLL1 (11728026_x_at): dose or concentration left out as unconfirmed. The settings on record: MV-4-11 cells, 48 hours.

For `Nc1ccc(-c2cccs2)cc1NC(=O)c1ccc2c(c1)cc(C1CC1)n2CCN1CCOCC1` [ACY-1035], the “RFU FAM211A (11726209_a_at)” value was 5.89 RFU.
